Source: patent US12264156B2, “Compounds and pharmaceutical compositions thereof for the treatment of diseases” (GALAPAGOS NV, priority 2018, dated 2025)

Columns and labels:
mouse CAIA model = test: Murine collagen-antibody induced arthritis model (CAIA); format: in vivo; details: 60 mg/kg p.o. b.i.d.
Method: ArthritoMabrm antibody cocktail for inducing arthritis and lipopolysaccharide (LPS) from Escherichia Coli serotype O55:B5 were purchased from MD Biosciences (OakdalMNnn., USA, Cat #CIA-MAB-50); PBS 1× (GIBCO, Cat #140190-086) was obtained from ThermoFisher Scientific, and Enbrel® (etanercept) was purchased from Chondrex (L'Isle d'Abeau, France, Cat #3771910).
Five to seven week old BALBc female mice were obtained from Janvier Labs (Le Genest-Saint-Isle, France). Mice were kept on a 12 h light/dark cycle. Temperature was maintained at 22° C., food and water were provided ad libitum.
The therapeutic effects of the compounds of the invention were tested in the mouse CAIA model (MD Biosciences 2008; Nandakumar et al. 2003). At day 1 (D1), mice were randomly divided into equal groups containing 10 mice. […] Bodyweight and clinical score of each mouse was assessed every day except the weekend until the end of the study. […] For histology readouts, right and left hind paws were individually collected in vials (25 mL minimum) filled with 4% buffered formaldehyde for a minimum of 24 h to a maximum of 4 days at RT.
Arthritis was scored according to the method of Khachigian 2006; Lin et al 2007 and Nishida et al. 2004 (Khachigian 2006; Lin et al. 2007; Nishida et al. 2004). […]

[1] = tested on: mouse T cell transfer model; test: T cell transfer model (mice); format: in vivo; details: 30 mg/kg p.o. b.i.d.
Text: DynaMag (Cat #12321D and 123203D) were obtained from Life Technologies Invitrogen (California, USA); DynabeadsFlowComp Mouse CD4+CD25-treg cells (Cat #11463D) were obtained from Life Technologies Invitrogen (California, USA), Fetal Bovine Serum (GIBCO), Cat #10270-106; RPMI (Gibco) Cat #32404-014 and D-PBS 1× without CaCl2 without MgCl2 (GIBCO), Cat #14190-086 were obtained ThermoFisher Scientific (Massachusetts, USA). Red Blood Cell (RBC) lysis buffer 10×, Cat #BLE420301 obtained from Ozyme (Montigny-le-Bretonneux, France). Cell strainer (70 μm grid), Cat #352350, obtained from Corning (New York, USA). […]
Fourteen days after cell injection, 100 μL of blood was sampled on each mouse under anesthesic conditions in order to determine CD4 level. […] Disease activity index was determined twice a week. Four to six weeks after the start of treatment, mice were sacrificed, blood was sampled and the complete colon was removed and rinsed with sterile PBS, it was measured and weighed in order to determine colon weight/length ratio. […]
There were 12 mice per group. The results were expressed as mean±SEM and statistical analysis was performed using non parametric test Kruskal-Wallis with Dunn's Multiple comparison test versus vehicle groups. […]

[2] = tested on: IL-23 induced psoriatic-like epidermal hyperplasia; test: Murine model of psoriatic-like epidermal hyperplasia induced by intradermal injections of IL-23; format: in vivo, mouse; details: 10 mg/kg p.o. b.i.d.
Method: Mouse recombinant IL-23, carrier free (Cat #14-8231) is provided by e-Bioscience (Frankfurt, Germany).
Balb/c mice (female, 18-20 g body weight) were obtained from Janvier Labs (Le Genest-Saint-Isle, France). Mice are kept on a 12 h light/dark cycle. Temperature was maintained at 22° C., food and water are provided ad libitum.
The design of the study was adapted from Rizzo H L. et al. (Rizzo et al. 2011). On the first day (D1), the mice were shaved around the two ears. For 4 consecutive days (D1 to D4), the mice received a daily intradermal dose of mouse recombinant IL-23 (1 μg/20 μL in PBS/0.1% BSA) in the right pinna ear and 20 μL of PBS/0.1% BSA in the left pinna ear under anesthesia.
From D1 to D5, mice were dosed with test-compound or with vehicle, 1 h prior IL-23 injection.
The thickness of both ears was measured daily with an automatic caliper. Body weight was assessed at initiation and at sacrifice. On fifth day, 2 h after the last dosing, the mice were sacrificed. The pinnae of the ear were cut, excluding cartilage. The pinnae, placed in a vial containing 1 mL of RNAlater® solution.
There were 8 mice per group. The results were expressed as mean±SEM and statistical analysis was performed using one-way ANOVA followed by Dunnett's post-hoc test versus IL-23 vehicle groups.

Compound: COc1cc(-c2cnc3cc(OCCN4CCOCC4)ccn23)cc2c1C(=O)N(CC(F)(F)F)CC2 [Cpd 88, 8-methoxy-6-[7-(2-morpholinoethoxy)imidazo [1,2-a]pyridin-3-yl]-2-(2,2,2-trifluoroethyl)-3,4-dihydroisoquinolin-1-one]
- Area Under the Curve (AUC) of clinical score vs. vehicle group (mouse CAIA model): statistically significant reduction of Area Under the Curve (AUC) of clinical score
- AUC of DAI vs. vehicle group [1]: statistical significant reduction of AUC of DAI
- ear thickness compared to IL-23 vehicle group [2]: statistically significant decrease of the ear thickness
